The values that follow come from patent US8455475B2 (Gruenenthal GmbH, priority 2009, dated 2013).

Experiment [1] concerns the target T1, rat B1R (bradykinin receptor 1) (Rattus norvegicus, UniProt P97583).
T1 construct: expressed in transfected cells; host or cells: CHO K1 cells
T1 sequence (P97583 1-337): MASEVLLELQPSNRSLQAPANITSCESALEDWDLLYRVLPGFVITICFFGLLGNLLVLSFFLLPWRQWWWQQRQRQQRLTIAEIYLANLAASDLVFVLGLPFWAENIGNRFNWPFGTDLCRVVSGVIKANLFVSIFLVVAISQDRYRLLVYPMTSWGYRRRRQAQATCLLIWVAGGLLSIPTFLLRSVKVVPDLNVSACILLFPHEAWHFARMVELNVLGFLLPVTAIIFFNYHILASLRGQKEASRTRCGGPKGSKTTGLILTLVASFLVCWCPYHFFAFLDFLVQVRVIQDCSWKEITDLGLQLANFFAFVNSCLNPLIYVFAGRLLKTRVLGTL
The experiment is described as follows: FLIPR Ca2+ assay (Fluo-4) on CHO K1 cells stably transfected with the B1R gene of the rat (rB1R cells): % inhibition at 10 μM / IC50, agonist Des-Arg9-bradykinin. Particulars: for inhibition at 10 µM: CHO-K1, rat B1R. Format: cell-based. The procedure, abridged:
(§1)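 Stably transfected CHO K1 cells loaded with Fluo-4 and read on FLIPR (λex 488, λem 540 nm; peak fluorescence). Test substance (10 μM) added first, then after 10–20 min the agonist at EC80; % inhibition versus maximum achievable inhibition. IC50 from several concentrations, n=2–3, N≥2.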

In experiment [2] the target is T2, human B1R (bradykinin receptor 1) (Homo sapiens, UniProt P46663).
T2 construct: expressed in transfected cells; host or cells: CHO K1 cells
T2 sequence (P46663 1-353): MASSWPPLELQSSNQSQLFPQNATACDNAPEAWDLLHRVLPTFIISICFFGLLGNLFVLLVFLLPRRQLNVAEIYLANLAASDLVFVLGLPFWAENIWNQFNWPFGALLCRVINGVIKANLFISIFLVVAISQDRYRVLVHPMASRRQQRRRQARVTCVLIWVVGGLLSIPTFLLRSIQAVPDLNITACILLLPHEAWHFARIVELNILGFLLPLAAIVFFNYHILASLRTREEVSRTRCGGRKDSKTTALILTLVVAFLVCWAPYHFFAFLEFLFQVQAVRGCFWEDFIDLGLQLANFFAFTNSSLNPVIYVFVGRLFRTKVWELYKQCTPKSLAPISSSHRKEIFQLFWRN
The experiment is described as follows: FLIPR Ca2+ assay (Fluo-4) on CHO K1 cells stably transfected with the human B1R gene (hB1R cells): % inhibition at 10 μM / IC50, agonist Lys-Des-Arg9-bradykinin. Format: cell-based. The following applies: for inhibition at 10 µM: CHO-K1, human B1R. The procedure, abridged: as §1

Broadly, the inhibition is the relative decrease from the control value, in per cent. `O=C(NC1CCc2ccc(C(=O)N3CCC4(CC3)CCN(c3ccncc3)C4)cc21)c1cc(Cl)ccc1Cl` (centres unmarked) [IND_CC-208, 2,5-Dichloro-N-[6-(2-pyridin-4-yl-2,8-diazaspiro[4.5]decane-8-carbonyl)-2,3-dihydro-1H-inden-1-yl]-benzamide]: the inhibition at 10 µM in experiment [1] was 100%; in experiment [2], 99%.
The corresponding values for `COc1cc(C)c(S(=O)(=O)N[C@@H]2CCCc3ccc(C(=O)N4CCC5(CCN(c6ccncc6)CC5)C4)cc32)c(C)c1` [Example H-16, 4-methoxy-2,6-dimehtyl-N-[(1R)-7-(8-pyridin-4-yl-3,8-diazaspiro[4.5]decane-3-carbonyl)-1,2,3,4-tetrahydro-naphthalen-1-yl]-benzenesulfonic acid amide] are 102% and 100%.
Take `O=C(N[C@@H]1CCc2ccc(C(=O)N3CCC4(CCN(c5ccncc5)CC4)C3)cc21)c1ccccc1Cl` [Example H-21, 2-chloro-N-[(1R)-6-(8-pyridin-4-yl-3,8-diazaspiro[4.5]decane-3-carbonyl)-2,3-dihydro-1H-inden-1-yl]-benzamide]: the inhibition at 10 µM is 105% in experiment [1] and 100% in experiment [2].
For `Cc1nc(CN2CCC3(CC2)CCN(C(=O)c2ccc4c(c2)C(NC(=O)c2ccccc2Cl)CC4)CC3)c[nH]1` (centres unmarked) [IND_CC-528, 2-Chloro-N-[6-[9-[(2-methyl-1H-imidazol-4-yl)-methyl]-3,9-diazaspiro[5.5]undecane-3-carbonyl]-2,3-dihydro-1H-inden-1-yl]-benzamide], in that order: 102% and 24%.
As to `COc1ccc(C(=O)N[C@@H]2CCc3ccc(C(=O)N4CCC5(CCN(c6ccncc6)CC5)C4)cc32)c(Cl)c1` [Example H-63, 2-Chloro-4-methoxy-N-[(1R)-6-(8-pyridin-4-yl-3,8-diazaspiro[4.5]decane-3-carbonyl)-2,3-dihydro-1H-inden-1-yl]-benzamide], the values for the inhibition at 10 µM in experiment [1] and in experiment [2] were 104% and 100%, respectively.
Consider `CC1(C)CC(NC(=O)Nc2ccc(Cl)c(Cl)c2)c2cc(C(=O)N3CCC4(CC3)CCN(c3ccncc3)CC4)ccc21` (centres unmarked) [Ind_CC-057], for which the “% Inhibition (rat B1R) at 10 μM” value in experiment [1] (rat B1R) was 80%. For the same compound, the “% Inhibition (human B1R) at 10 μM” value in experiment [2] (human B1R) is listed as 35%.
For `O=C(NC1CCc2ccc(C(=O)N3CCC4(CC3)CCN(c3ccncc3)CC4)cc21)c1ccccc1Cl` (centres unmarked) [IND_CC-273, 2-Chloro-N-[6-(9-pyridin-4-yl-3,9-diazaspiro[5.5]undecane-3-carbonyl)-2,3-dihydro-1H-inden-1-yl]-benzamide], the inhibition at 10 µM in experiment [1] was found to be 106%; in experiment [2], 99%.
The corresponding values for `O=C(NC1CCc2ccc(C(=O)N3CCC4(CCN(c5ncc(C(F)(F)F)cn5)CC4)C3)cc21)c1ccccc1Cl` (centres unmarked) [Example H-130, 2-Chloro-N-[6-[8-[5-(trifluoromethyl)-pyrimidin-2-yl]-3,8-diazaspiro[4.5]decane-3-carobnyl]-2,3-dihydro-1H-inden-1-yl]-benzamide] are 99% and 94%.
For `CC1(C)Cc2ccc(C(=O)N3CCC4(CC3)CCN(c3ccncc3)CC4)cc2C1NC(=O)c1ccc(Cl)s1` (centres unmarked) [Ind_CC-066, 5-chloro-N-[2,2-dimethyl-6-(9-pyridin-4-yl-3,9-diazaspiro[5.5]undecane-3-carbonyl)-1,3-dihydro-inden-1-yl]-thiophene-2-carboxylic acid amide], in that order: 98% and 82%.
For `O=C(NC1CCc2ccc(C(=O)N3CCC4(CC3)CCN(c3ccncc3)CC4)cc21)c1ccccc1C(F)(F)F` (centres unmarked) [Ind_CC-003, N-[6-(9-pyridin-4-yl-3,9-diazaspiro[5.5]undecane-3-carbonyl)-2,3-dihydro-1H-inden-1-yl]-2-(trifluoromethyl)-benzamide], in that order: 101% and 99%.
Take `O=C(c1cccc2c1CC[C@H]2NS(=O)(=O)c1ccccc1Cl)N1CCC2(CC1)CCN(c1ccncc1)CC2` [Example H-167, 2-Chloro-N-[(1R)-4-(9-pyridin-4-yl-3,9-diazaspiro[5.5]undecane-3-carbonyl)-2,3-dihydro-1H-inden-1-yl]-benzenesulfonic acid amide]: the inhibition at 10 µM in experiment [1] is 81%; in experiment [2], 35%.
The corresponding values for `O=C(N[C@@H]1CCOc2ccc(C(=O)N3CCC4(CCN(c5ccncc5)CC4)C3)cc21)c1ccccc1Cl` [Example H-67, 2-Chloro-N-[(4R)-6-(8-pyridin-4-yl-3,8-diazaspiro[4.5]decane-3-carbonyl)-3,4-dihydro-2H-chromen-4-yl]-benzamide] are 102% and 100%.
`O=C(NC1CCc2ccc(C(=O)N3CCC4(CC3)CCN(c3ccncc3)C4)cc21)c1cc(Cl)ccc1C(F)(F)F` (centres unmarked) [IND_CC-303, 5-Chloro-N-[6-(2-pyridin-4-yl-2,8-diazaspiro[4.5]decane-8-carbonyl)-2,3-dihydro-1H-inden-1-yl]-2-(trifluoromethyl)-benzamide]: the figures for the inhibition at 10 µM in experiment [1] and in experiment [2] were 106% and 92%, respectively.
Regarding `O=C(NC1CCc2ccc(C(=O)N3CCC4(CC3)CCN(c3cccnc3)CC4)cc21)c1sccc1Cl` (centres unmarked) [Ind_CC-102, 3-chloro-N-[6-(9-pyridin-3-yl-3,9-diazaspiro[5.5]undecane-3-carbonyl)-2,3-dihydro-1H-inden-1-yl]-thiophene-2-carboxylic acid amide], the values for the inhibition at 10 µM in experiment [1] and in experiment [2] were 100% and 87%, respectively.
For `O=C(NC1CCc2ccc(C(=O)N3CCC4(CC3)CCN(c3ccncc3)CC4)cc21)c1ccccn1` (centres unmarked) [Ind_CC-002, N-[6-(9-pyridin-4-yl-3,9-diazaspiro[5.5]undecane-3-carbonyl)-2,3-dihydro-1H-inden-1-yl]-pyridine-2-carboxylic acid amide], in that order: 85% and 97%.
The corresponding values for `O=C(NC1CCCCc2ccc(C(=O)N3CCC4(CC3)CCN(c3cccnc3)CC4)cc21)c1ccccc1Cl` (centres unmarked) [Ind_CC-121, 2-chloro-N-[3-(9-pyridin-3-yl-3,9-diazaspiro[5.5]undecane-3-carbonyl)-6,7,8,9-tetrahydro-5H-benzocyclohepten-5-yl]-benzamide] are 103% and 46%.
The corresponding values for `O=C(N[C@@H]1CCc2ccc(C(=O)N3CCC4(CCN(c5ccncc5)CC4)C3)cc21)c1cnccc1C(F)(F)F` [Example H-115, N-[(1R)-6-(8-Pyridin-4-yl-3,8-diazaspiro[4.5]decane-3-carbonyl)-2,3-dihydro-1H-inden-1-yl]-4-(trifluoromethyl)-pyridine-3-carboxylic acid amide] are 101% and 100%.
As to `COc1ccc(C(=O)N[C@@H]2CCc3ccc(C(=O)N4CCC5(CCN(c6ccncc6)CC5)C4)cc32)c(C)c1` [Example H-61, 4-Methoxy-2-methyl-N-[(1R)-6-(8-pyridin-4-yl-3,8-diazaspiro[4.5]decane-3-carbonyl)-2,3-dihydro-1H-inden-1-yl]-benzamide], the results for the inhibition at 10 µM in experiment [1] and in experiment [2] were 104% and 100%, respectively.
For `Cc1cccc(C)c1C(=O)N[C@@H]1CCc2ccc(C(=O)N3CCC4(CCN(c5ccncc5)CC4)C3)cc21` [Example H-104, 2,6-Dimethyl-N-[(1R)-6-(8-pyridin-4-yl-3,8-diazaspiro[4.5]decane-3-carbonyl)-2,3-dihydro-1H-inden-1-yl]-benzamide], in that order: 109% and 101%.
For the compound `CN(C(=O)c1c(Cl)cccc1Cl)C1CCc2ccc(C(=O)N3CCC4(CC3)CCN(c3ccncc3)CC4)cc21` (centres unmarked) [IND_CC-268, 2,6-Dichloro-N-methyl-N-[6-(9-pyridin-4-yl-3,9-diazaspiro[5.5]undecane-3-carbonyl)-2,3-dihydro-1H-inden-1-yl]-benzamide], the inhibition at 10 µM in experiment [1] was determined as 108%; in experiment [2], 99%.
For `O=C(Cc1ccccc1Cl)N[C@@H]1CCc2ccc(C(=O)N3CCC4(CCN(c5ccncc5)CC4)C3)cc21` [Example H-151, 2-(2-Chlorophenyl)-N-[(1R)-6-(8-pyridin-4-yl-3,8-diazaspiro[4.5]decane-3-carbonyl)-2,3-dihydro-1H-inden-1-yl]-acetamide], in that order: 103% and 99%.
Turning to `O=C(NC1CCc2ccc(C(=O)N3CCC4(CC3)CCN(c3ccncc3)CC4)cc21)C(c1ccccc1)c1ccccc1Cl` (centres unmarked) [Ind_CC-009, 2-(2-chlorophenyl)-2-phenyl-N-[6-(9-pyridin-4-yl-3,9-diazaspiro[5.5]undecane-3-carbonyl)-2,3-dihydro-1H-inden-1-yl]-acetamide], the inhibition at 10 µM in experiment [1] stood at 99%; in experiment [2], 87%.
